The target of one assay is T1, HIV protease (Human immunodeficiency virus type 1 group M subtype B, UniProt P04585).
T1 construct: and purified protease
The assay is described as follows: HIV Protease Assay. Type of assay: biochemical. The conditions noted are these: for HIV Protease % Inhibition at 10 μM: 10 μM inhibitor. The essentials: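 At a single final concentration of 10 μM (4% DMSO), inhibitors were added to a 30-minute, 37° C reaction of purified enzyme with 450 μM H2N-Val-Ser-Gln-Asn-(β-naphthyl-alanine)-Pro-Val-Ile-OH at pH 5.5 (sodium acetate, BSA). Hydrolysis was quantified by reverse-phase HPLC with 220 nm detection after acid quench.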

Assay [1] concerns RF strain of HIV (CEM-SS cells). Briefly: Cell Culture Anti-HIV Activity (cell viability, formazan). Type of assay: cell-based. The settings on record: CEM-SS cells, RF strain of HIV, multiplicity of infection 0.04, 6 days at 37° C., 450 nm, read-out: HIV (CEM Cells) IC50. Summed up: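 Half-log compound dilutions added to CEM-SS cells (5000/well) carrying HIV RF (MOI 0.04), 6 days, 37° C. Cell protection measured as formazan from tetrazolium, A450. IC50: drug level restoring infected-cell formazan to 50% of the uninfected untreated control.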

Setting [2] is: pH 5.5, 10 μM inhibitor, 4% DMSO, 450 μM substrate, pH 5.5, 30 minutes at 37° C., RP-HPLC, read-out: HIV Protease % Inhibition at 10 μM.
Where [3] appears, read: Human immunodeficiency virus 1, CEM-SS, 144 h.
Setting [4] is: 4% DMSO, 450 μM substrate, pH 5.5, 30 minutes at 37° C., RP-HPLC.
Where [5] appears, read: pH 5.5, read-out: HIV Protease % Inhibition at 10 μM.

SMILES strings stand for the structures. Where two headings read alike, the source gives them in different places.

In general, inhibition refers to the percentage by which the read-out fell short of the control. A word on the IC50: it is the midpoint of a concentration-inhibition curve. With `COC(=O)N[C@H](C(=O)N[C@@H](Cc1ccccc1)[C@H](O)CNC[C@@H](O)[C@H](Cc1ccc(OCCc2ccccn2)cc1)NC(=O)OC(C)(C)C)C(C)(C)C` (relative stereo) [Compound 327, [1R*,2S*(2S*,3R*)-N-[3-[[3-[[(1,1-Dimethylethoxy)carbonyl]amino]-2-hydroxy-4-[4-[2-(2-pyridinyl)ethoxyl]phenyl]butyl]amino]-2-hydroxy-1-(phenylmethyl)propyl]-N^2-(methoxycarbonyl)-3-methyl-L-valinamide], the inhibition at 10 µM on HIV protease (setting [2]) was 99%. For the same compound, in assay [1] (setting [3]), the IC50 is 50 nM.
On the same counts, the results for `COC(=O)N[C@H](C(=O)N[C@@H](Cc1ccc(OCC(=O)N2CCOCC2)cc1)[C@H](O)CNC[C@@H](O)[C@H](Cc1ccccc1)NC(=O)OC(C)(C)C)C(C)(C)C` (relative stereo) [Compound 341, [1R*,2S*(2S*,3R*)]-N-[3-[[3-[[(1,1-Dimethylethoxy)carbonyl]amino]-2-hydroxy-4-phenylbutyl]amino]-2-hydroxy-1-[[4-[2-(4-morpholinyl)-2-oxoethoxy]phenyl]methyl]propyl]-N^2-(2-methoxycarbonyl)-3-methyl-L-valinamide] are 99% and 2100 nM.
On to `CNC(=O)N(C)[C@H](C(=O)N[C@@H](Cc1ccccc1)[C@H](O)CNC[C@@H](O)[C@H](Cc1ccccc1)NC(=O)OC(C)(C)C)C(C)(C)C` (relative stereo) [Compound 342, [1R*,2S* (2S*, 3R*)]-N-[3-[[3-[[(1,1-Dimethylethoxy)carbonyl]amino]-2-hydroxy-4-phenylbutyl]amino]-2-hydroxy-1-(phenylmethyl)propyl]-N^2-[(methylamino)carbonyl]-N^2-3-dimethyl-L-valinamide], for which, at HIV protease (setting [2]), the inhibition at 10 µM was 99%. For the same compound, in assay [1] (setting [3]), the IC50 came out at 70 nM.
Consider `COC(=O)N[C@H](C(=O)N[C@@H](Cc1ccccc1)[C@H](O)CNC[C@@H](O)[C@H](Cc1ccccc1)NC(=O)OC(C)(C)CO)C(C)(C)C` (relative stereo) [Compound 359, [1R*,2S*(2S*,3R*)]-N-[2-Hydroxy-3-[[2-hydroxy-3-[[(2-hydroxy-1,1-dimethylethoxy)-carbonyl]amino]-4-phenylbutyl]amino]-1-(phenylmethyl)propyl]-N^2-(2-methoxycarbonyl)-3-methyl-L-valinamide], for which, on HIV protease (setting [2]), the inhibition at 10 µM is 99%. In addition, the IC50 in assay [1] (setting [3]) turned out to be 560 nM.
Turning to `CC(C)(C)OC(=O)N[C@@H](Cc1ccccc1)[C@H](O)CNC[C@@H](O)[C@H](Cc1ccccc1)NC(=O)C1NC(=O)CC1(C)C` (single isomer, unassigned) [Compound 267, [1S-[1R*,2S*(2S*,3R*)]]-[3-[[3-[[(3,3-Dimethyl-5-oxo-2-pyrrolidinyl)carbonyl]amino]-2-hydroxy-4-phenylbutyl]amino]-2-hydroxy-l-(phenylmethyl)propyl]carbamic acid, 1,1-dimethylethyl ester], on HIV protease (setting [4]), the “HIV Protease % Inhibition at 10 μM” value is 97%. Besides, in assay [1] (setting [3]), the IC50 stood at 180 nM.
On to `CC(C)(C)OC(=O)N[C@@H](Cc1ccccc1)[C@H](O)CNC[C@@H](O)[C@H](Cc1ccccc1)NC(=O)C(O)C(F)(F)F` (single isomer, unassigned; isomer a) [Compound 271, [1S-[1R*,2S*(2S*,3R*)]]-[2-Hydroxy-1-(phenylmethyl)-3-[[2-hydroxy-4-phenyl-3-[(3,3,3-trifluoro-2-hydroxy-1-oxopropyl)amino]butyl]amino]-propyl]carbamic acid, 1,1-dimethylethyl ester (isomer A)], for which the inhibition at 10 µM at HIV protease (setting [2]) amounted to 99%. The IC50 in assay [1] (setting [3]) turned out to be 60 nM.
For the compound `CC(C)(C)OC(=O)N[C@@H](Cc1ccccc1)[C@H](O)CNC[C@@H](O)[C@H](Cc1ccccc1)NC(=O)C(C)(O)C(F)(F)F` (single isomer, unassigned; isomer a) [Compound 293, [1S-[1R*,2S*(2S*,3R*)]]-[2-Hydroxy-3-[2-hydroxy-1-oxo-2-(trifluoromethyl)-propyl]amino]-4-phenylbutyl]amino]-1-(phenylmethyl)propyl]carbamic acid, 1,1-dimethylethylester (isomer A)], the inhibition at 10 µM on HIV protease (setting [2]) is 99%. Besides, the IC50 in assay [1] (setting [3]) turned out to be 30 nM.
The like results for `CC(C)(C)OC(=O)N[C@@H](Cc1ccccc1)[C@H](O)CNC[C@@H](O)[C@H](Cc1ccccc1)NC(=O)C(NC(=O)OCc1ccccc1)C(C)(C)O` (single isomer, unassigned; isomer a) [Compound 301, [1S-[1R*,2S*(2S*,3R*)]]-[1-[[[3-[[(1,1-Dimethylethoxy)carbonyl]amino]-2-hydroxy-4-phenylbutyl]amino]-2-hydroxy-1-(phenylmethyl)propyl]amino]carbonyl]-2-hydroxy-2-methylpropyl]carbamic acid, phenylmethyl ester, isomer A] were, in that order, 95% and 2400 nM.
`CC(C)(C)OC(=O)N[C@@H](Cc1ccccc1)[C@H](O)CNC[C@@H](O)[C@H](Cc1ccccc1)NC(=O)C(NC(=O)OCc1ccccc1)C(C)(C)CO` (single isomer, unassigned; isomer a) [Compound 308, [1S-[1R*,2S*(2S*,3R*)]]-1-[[[3-[[(1,1-Dimethylethoxy)carbonyl]amino]-2-hydroxy-4-phenylbutyl]amino]-2-hydroxy-1-(phenylmethyl)propyl]amino]carbonyl-2-(hydroxymethyl)-2-methylpropyl] carbamic acid, phenylmethyl ester, isomer A]: at HIV protease (setting [2]), the inhibition at 10 µM is 100%. Also, the IC50 in assay [1] is 20 nM.
Turning to `CC(C)(C)OC(=O)N[C@@H](Cc1ccccc1)[C@H](O)CNC[C@@H](O)[C@H](Cc1ccccc1)NC(=O)C(CCO)C(C)(C)C` (single isomer, unassigned; isomer a) [Compound 312, [1S-[1R*, 2S* (2S*, 3R*)]]-[3-[[3-[[2-(1,1-Dimethylethyl)-4-hydroxy-1-oxobutyl]amino]-2-hydroxy-4-phenylbutyl]amino]-2-hydroxy-1-(phenylmethyl)propyl]carbamic acid, 1,1-dimethylethyl ester, isomer A], the “HIV Protease % Inhibition at 10 μM” value on HIV protease (setting [4]) was found to be 95%. Moreover, the IC50 in assay [1] (setting [3]) is 3500 nM.
For `CC(C)(C)OC(=O)N[C@@H](Cc1ccccc1)[C@H](O)CNC[C@@H](O)[C@H](Cc1ccccc1)NC(=O)C1(O)CCCC1(C)C` (single isomer, unassigned; isomer a) [Compound 321, [1S-[1R*,2S*(2S*,3R*)]]-[3-[[3-[[2,2-Dimethyl-1-hydroxycyclopentyl)-carbonyl]amino]-2-hydroxy-4-phenylbutyl]amino]-2-hydroxy-1-(phenylmethyl)propyl]carbamic acid, 1,1-dimethylethyl ester, isomer A], the inhibition at 10 µM on HIV protease (setting [5]) is 100%. In assay [1], the IC50 worked out at 200 nM.
As to `CC1(C)CCCC1(O)C(=O)N[C@@H](Cc1ccccc1)[C@H](O)CNC[C@@H](O)[C@H](Cc1ccccc1)NC(=O)C1(O)CCCC1(C)C` (single isomer, unassigned; isomer a) [Compound 336], the inhibition at 10 µM on HIV protease (setting [2]) was found to be 100%. Besides, the IC50 in assay [1] was 40 nM.
Turning to `CC(C)(C)OC(=O)N[C@@H](Cc1ccccc1)[C@H](O)CNC[C@@H](O)[C@H](Cc1ccc(OCC(O)c2cccnc2)cc1)NC(=O)OC(C)(C)C` (single isomer, unassigned; isomer a) [Compound 355, [1S-[1R*,2S* (2S*,3R*)]]-[3-[[3-[[(1,1-Dimethylethoxy)carbonyl]amino]-2-hydroxy-4-[4-[2-hydroxy-2-(3-pyridinyl)ethoxy]phenyl]-butyl]amino]-2-hydroxy-1-(phenylmethyl)-propyl]-carbamic acid, 1,1-dimethylethyl ester, Isomer A], at HIV protease (setting [5]), the inhibition at 10 µM worked out at 99%. Further, the IC50 in assay [1] (setting [3]) came to 70 nM.
In the case of `CC(C)(C)OC(=O)N[C@@H](Cc1ccccc1)[C@H](O)CNC[C@@H](O)[C@H](Cc1ccccc1)NC(=O)C(C)(O)C(C)(C)CO` (single isomer, unassigned; isomer a) [Compound 356, [1S-[1R*,2S*(2S*,3R*)]]-[3-[3-[2,4-Dihydroxy-2,3,3-trimethyl-1-oxobutyl)amino]-2-hydroxy-4-phenylbutyl]amino]-2-hydroxy-1-(phenylmethyl)propyl]carbamic acid, 1,1-dimethylethyl ester, isomer A], the inhibition at 10 µM on HIV protease (setting [5]) turned out to be 99%. Also, the IC50 in assay [1] (setting [3]) came out at 120 nM.
Take `CC(C)(C)OC(=O)N[C@@H](Cc1ccccc1)[C@H](O)CNC[C@@H](O)[C@H](Cc1ccccc1)NC(=O)C1(O)COCC1(C)C` (single isomer, unassigned; isomer a) [Compound 364, [1S-[1R*,2S*(2S*,3R*)]]-[2-Hydroxy-3-[[tetrahydro-3-hydroxy-4,4-dimethyl-3-furanyl)carbonyl]amino]-4-phenylbutyl]amino]-1-(phenylmethyl)-propyl]carbamic acid, 1,1-dimethylethyl ester, Isomer A]: the “HIV Protease % Inhibition at 10 μM” value at HIV protease (setting [4]) was determined as 98%. The IC50 in assay [1] (setting [3]) was 220 nM.
